Reference: PMC9516332 (Frontiers in Oncology, 2022)
Like-named read-outs stand apart in the source and are kept apart here.

Key:
[1] = molecular target: panel of 255 wild-type kinases (Homo sapiens, UniProt P50613); assay: Kinase panel profiling at 1 µmol/L (MSA or IMAP), percentage inhibition; format: biochemical; conditions: CDK7/CycH/MAT1 kinase assay; 1 µmol/L single concentration; read-out: %-inhibition CDK7/CycH/MAT1
[2] = molecular target: panel of 255 wild-type kinases (Homo sapiens, UniProt O75582); assay: as above; format: biochemical; conditions: MSK1; 1 µmol/L single concentration; read-out: %-inhibition, MSK1
[3] = molecular target: panel of 255 wild-type kinases (Homo sapiens, UniProt Q00526); assay: as above; format: biochemical; conditions: CDK3/CycE1 kinase assay; 1 µmol/L single concentration; read-out: %-inhibition CDK3/CycE1
[4] = molecular target: panel of 255 wild-type kinases (Homo sapiens, UniProt P22607); assay: as above; format: biochemical; conditions: kinase FGFR3; 1 µmol/L single concentration; read-out: %-inhibition at 1 µmol/L, FGFR3
[5] = molecular target: panel of 255 wild-type kinases (Homo sapiens, UniProt Q9HBH9); assay: as above; format: biochemical; conditions: MNK2; 1 µmol/L single concentration; read-out: %-inhibition, MNK2
[6] = molecular target: panel of 255 wild-type kinases (Homo sapiens, UniProt P49760); assay: as above; format: biochemical; conditions: kinase CLK2; 1 µmol/L single concentration; read-out: %-inhibition at 1 µmol/L, CLK2
[7] = molecular target: panel of 255 wild-type kinases (Homo sapiens, UniProt Q13177); assay: as above; format: biochemical; conditions: PAK2; 1 µmol/L single concentration; read-out: %-inhibition, PAK2
[8] = molecular target: panel of 255 wild-type kinases (Homo sapiens, UniProt Q96RG2); assay: as above; format: biochemical; conditions: PASK; 1 µmol/L single concentration; read-out: %-inhibition, PASK
[9] = molecular target: panel of 255 wild-type kinases (Homo sapiens, UniProt P45983); assay: as above; format: biochemical; conditions: kinase JNK1; 1 µmol/L single concentration; read-out: %-inhibition at 1 µmol/L, JNK1
134 cancer cell lines = assay: Cell viability assay (ATPlite, 72 hours), IC50 on cancer cell line panel

Compound `CCN1CCN(c2ccc(Nc3cc(N(C)C(=O)Nc4c(Cl)c(OC)cc(OC)c4Cl)ncn3)cc2)CC1` [infigratinib] has an inhibition at 1 µM [1] of 9%, an inhibition at 1 µM [2] of 2.27% and an inhibition at 1 µM [3] of -10%. It also gave an inhibition at 1 µM [4] of 102%, an inhibition at 1 µM [5] of -1.83% and an inhibition at 1 µM [6] of 15%. For the same compound, the inhibition at 1 µM [7] was 1.66%, the inhibition at 1 µM [8] was -1.46% and the inhibition at 1 µM [9] was -3.19%. For the same compound, the IC50 (134 cancer cell lines; HEC-6, read-out: IC50 in cell proliferation assay, HEC-6 cell line (EGFR p.A289V)) was > 3.16 µM, the IC50 (134 cancer cell lines; Homo sapiens, 769-P, read-out: IC50 in cell proliferation assay, cell line 769-P) was > 3.16 µM and the IC50 (134 cancer cell lines; Homo sapiens, 786-0, read-out: IC50 in cell proliferation assay, cell line 786-O) was > 3.16 µM. The IC50 (134 cancer cell lines; Homo sapiens, A 172, read-out: IC50 in cell proliferation assay, cell line A-172) was 0.041 µM, the IC50 (134 cancer cell lines; Homo sapiens, A204, read-out: IC50 in cell proliferation assay, cell line A-204) was 0.063 µM and the IC50 (134 cancer cell lines; Homo sapiens, A498, read-out: IC50 in cell proliferation assay, cell line A-498) was 2.97 µM. For the same compound, the IC50 (134 cancer cell lines; Homo sapiens, A549, read-out: IC50 in cell proliferation assay, cell line A-549) was > 3.16 µM, the IC50 (134 cancer cell lines; Homo sapiens, A704, read-out: IC50 in cell proliferation assay, cell line A-704) was > 3.16 µM and the IC50 (134 cancer cell lines; Homo sapiens, A-375, read-out: IC50 in cell proliferation assay, cell line A-375 (BRAF p.V600E)) was > 3.16 µM. For the same compound, the IC50 (134 cancer cell lines; Homo sapiens, A-427, read-out: IC50 in cell proliferation assay, cell line A-427) was 1.79 µM, the IC50 (134 cancer cell lines; Homo sapiens, ACHN, read-out: IC50 in cell proliferation assay, cell line ACHN) was 2.75 µM and the IC50 (134 cancer cell lines; Homo sapiens, AN3-CA, read-out: IC50 in cell proliferation assay, cell line AN3-CA (FGFR2 p.N549K)) was 0.203 µM. The IC50 (134 cancer cell lines; Homo sapiens, ASPC1, read-out: IC50 in cell proliferation assay, cell line AsPC-1) was > 3.16 µM, the IC50 (134 cancer cell lines; Homo sapiens, AU565, read-out: IC50 in cell proliferation assay, cell line AU565 (ERBB2 amplification)) was > 3.16 µM and the IC50 (134 cancer cell lines; Homo sapiens, BT-20, read-out: IC50 in cell proliferation assay, cell line BT-20) was > 3.16 µM. The IC50 (134 cancer cell lines; Homo sapiens, BT-474, read-out: IC50 in cell proliferation assay, cell line BT-474 (ERBB2 amplification)) was > 3.16 µM, the IC50 (134 cancer cell lines; Homo sapiens, BT-549, read-out: IC50 in cell proliferation assay, cell line BT-549) was > 3.16 µM and the IC50 (134 cancer cell lines; Homo sapiens, BXPC-3, read-out: IC50 in cell proliferation assay, cell line BxPC-3) was > 3.16 µM. For the same compound, the IC50 (134 cancer cell lines; Homo sapiens, C-33-A, read-out: IC50 in cell proliferation assay, cell line C-33 A) was > 3.16 µM, the IC50 (134 cancer cell lines; Homo sapiens, CAL-27, read-out: IC50 in cell proliferation assay, cell line CAL-27) was > 3.16 µM and the IC50 (134 cancer cell lines; Homo sapiens, CCF-STTG1, read-out: IC50 in cell proliferation assay, cell line CCF-STTG1) was > 3.16 µM. For the same compound, the IC50 (134 cancer cell lines; Homo sapiens, CCRF-CEM, read-out: IC50 in cell proliferation assay, cell line CCRF-CEM) was > 3.16 µM, the IC50 (134 cancer cell lines; Homo sapiens, COLO 205, read-out: IC50 in cell proliferation assay, cell line COLO 205 (BRAF p.V600E)) was > 3.16 µM and the IC50 (134 cancer cell lines; Homo sapiens, COLO-829, read-out: IC50 in cell proliferation assay, cell line COLO 829 (BRAF p.V600E)) was > 3.16 µM. The IC50 (134 cancer cell lines; Homo sapiens, DLD-1, read-out: IC50 in cell proliferation assay, cell line DLD-1) was > 3.16 µM, the IC50 (134 cancer cell lines; Homo sapiens, DU-4475, read-out: IC50 in cell proliferation assay, cell line DU4475 (BRAF p.V600E)) was > 3.16 µM and the IC50 (134 cancer cell lines; Homo sapiens, Daoy, read-out: IC50 in cell proliferation assay, cell line Daoy) was > 3.16 µM. The IC50 (134 cancer cell lines; Homo sapiens, DoTc2-4510, read-out: IC50 in cell proliferation assay, cell line DoTc2 4510) was > 3.16 µM, the IC50 (134 cancer cell lines; Homo sapiens, FaDu, read-out: IC50 in cell proliferation assay, cell line FaDu) was > 3.16 µM and the IC50 (134 cancer cell lines; Homo sapiens, G-361, read-out: IC50 in cell proliferation assay, cell line G-361 (BRAF p.V600E)) was > 3.16 µM. The IC50 (134 cancer cell lines; Homo sapiens, HCC827, read-out: IC50 in cell proliferation assay, cell line HCC827 (EGFR exon19del)) was 5 µM, the IC50 (134 cancer cell lines; Homo sapiens, HCC4006, read-out: IC50 in cell proliferation assay, cell line HCC4006 (EGFR exon19del)) was 6.22 µM and the IC50 (134 cancer cell lines; Homo sapiens, HCT-15, read-out: IC50 in cell proliferation assay, cell line HCT 15) was > 3.16 µM. The IC50 (134 cancer cell lines; Homo sapiens, HCT-116, read-out: IC50 in cell proliferation assay, cell line HCT 116) was > 3.16 µM, the IC50 (134 cancer cell lines; Homo sapiens, HEC-1, read-out: IC50 in cell proliferation assay, HEC-1 cell line) was 3.04 µM and the IC50 (134 cancer cell lines; Homo sapiens, HEC-1B, read-out: IC50 in cell proliferation assay, HEC-1-B cell line (EGFR p.A864V)) was > 3.16 µM. The IC50 (134 cancer cell lines; Homo sapiens, HL-60, read-out: IC50 in cell proliferation assay, HL-60 cell line) was > 3.16 µM, the IC50 (134 cancer cell lines; Homo sapiens, HT, read-out: IC50 in cell proliferation assay, HT cell line) was > 3.16 µM and the IC50 (134 cancer cell lines; Homo sapiens, HT-1080, read-out: IC50 in cell proliferation assay, HT-1080 cell line) was 2.99 µM. For the same compound, the IC50 (134 cancer cell lines; Homo sapiens, Hs-578T, read-out: IC50 in cell proliferation assay, Hs 578T cell line) was > 3.16 µM, the IC50 (134 cancer cell lines; Homo sapiens, HuTu80, read-out: IC50 in cell proliferation assay, HuTu 80 cell line) was 0.039 µM and the IC50 (134 cancer cell lines; Homo sapiens, J82, read-out: IC50 in cell proliferation assay, J82 cell line) was > 3.16 µM. The IC50 (134 cancer cell lines; Homo sapiens, Jurkat E6.1, read-out: IC50 in cell proliferation assay, Jurkat E6.1 cell line) was > 3.16 µM, the IC50 (134 cancer cell lines; Homo sapiens, K562, read-out: IC50 in cell proliferation assay, K-562 cell line) was > 3.16 µM and the IC50 (134 cancer cell lines; Homo sapiens, KATO III, read-out: IC50 in cell proliferation assay, KATO III cell line (FGFR2 amplification)) was 0.008 µM. The IC50 (134 cancer cell lines; Homo sapiens, KG-1, read-out: IC50 in cell proliferation assay, KG-1 cell line (FGFR1OP2-FGFR1)) was 0.00229 µM, the IC50 (134 cancer cell lines; Homo sapiens, KLE, read-out: IC50 in cell proliferation assay, KLE cell line) was > 3.16 µM and the IC50 (134 cancer cell lines; Homo sapiens, KMS-11, read-out: IC50 in cell proliferation assay, KMS-11 cell line (FGFR3 p.Y373C)) was 0.026 µM. The IC50 (134 cancer cell lines; Homo sapiens, KU812, read-out: IC50 in cell proliferation assay, Ku812 cell line) was > 3.16 µM, the IC50 (134 cancer cell lines; Homo sapiens, Kasumi 1, read-out: IC50 in cell proliferation assay, Kasumi-1 cell line (KIT p.N822K)) was 3.42 µM and the IC50 (134 cancer cell lines; Homo sapiens, LC-2-ad, read-out: IC50 in cell proliferation assay, LC-2/ad cell line (CCDC6-RET)) was 3.45 µM. The IC50 (134 cancer cell lines; Homo sapiens, LNCaP-Clone-FGC, read-out: IC50 in cell proliferation assay, LNCaP clone FGC cell line) was > 3.16 µM, the IC50 (134 cancer cell lines; Homo sapiens, LS174T, read-out: IC50 in cell proliferation assay, LS174T cell line) was > 3.16 µM and the IC50 (134 cancer cell lines; Homo sapiens, LS-411N, read-out: IC50 in cell proliferation assay, LS411N cell line (BRAF p.V600E)) was > 3.16 µM. For the same compound, the IC50 (134 cancer cell lines; Homo sapiens, LoVo, read-out: IC50 in cell proliferation assay, LoVo cell line) was > 3.16 µM, the IC50 (134 cancer cell lines; Homo sapiens, MCF7, read-out: IC50 in cell proliferation assay, MCF-7 cell line) was > 3.16 µM and the IC50 (134 cancer cell lines; Homo sapiens, MDA-MB-231, read-out: IC50 in cell proliferation assay, MDA-MB-231 cell line) was > 3.16 µM. For the same compound, the IC50 (134 cancer cell lines; Homo sapiens, MDA-MB-453, read-out: IC50 in cell proliferation assay, MDA-MB-453 cell line) was 0.655 µM, the IC50 (134 cancer cell lines; Homo sapiens, MDA-MB-468, read-out: IC50 in cell proliferation assay, MDA-MB-468 cell line) was > 3.16 µM and the IC50 (134 cancer cell lines; Homo sapiens, MG-63, read-out: IC50 in cell proliferation assay, MG-63 cell line) was 0.189 µM.
